Values of other authors, collected in US11789016B2, “Methods, systems and kits for in-pen assays” (Berkeley Lights, Inc., priority 2017, dated 2023).
Like-named read-outs stand apart in the source and are kept apart here.

Biological target: IgG
Settings: for Kd: read-out: Affinity for IgG

## CPD 1: Protein A-AF594, Pierce Recombinant Protein A (ThermoFisher Cat. # 77674)
Order of magnitude in words
  Affinity for IgG: nanomolar

## DCAWHLGELVWCT [CPD 4, Asp Cys Ala Trp His Leu Gly Glu Leu Val Trp Cys Thr]
Fc
  Kd: 100 nM

## 5′-rGp-rGp-rAp-rGp-rGp-fUp-rGp-fCp-fUp-fCp-fCp-rGp-rAp-rAp-rAp-rGp-rGp-rAp-rAp-fCp-fUp-fCp-fCp-3′ [CPD 5]
Fc of hIgG
  Kd: 75 nM
